Counter-ions that a name gives are not always drawn. Positions of bridges follow the written chain, without caps; N, C: chain ends. Non-standard residues stand in square brackets, D forms with d. Residues, ends and D or L forms follow the SMILES beside them. hArg = N=C(N)NCCCC[C@H](N)C(=O)O; Mpa = O=C(O)CCS

The series in a line: in vitro. To be noted: rat, gh3-tre-luc cells.

What is called CC50 is the concentration giving 50% cytotoxicity. In turn, `CCCCS(=O)(=O)N[C@@H](Cc1ccc(OCCCCC2CCNCC2)cc1)C(=O)O` [Tirofiban hydrochloride monohydrate] returned a CC50 at 24 h (AC50 (uM) modified / 1000) of over 50 µM. Where the note is “AC50 (uM) modified / 1000”, `N=C(N)NCCCC[C@@H]1NC(=O)CCSSC[C@@H](C(N)=O)NC(=O)[C@@H]2CCCN2C(=O)[C@H](Cc2c[nH]c3ccccc23)NC(=O)[C@H](CC(=O)O)NC(=O)CNC1=O` [Eptifibatide] ([Mpa][hArg]GDWPC-NH2; disulfide 1-7) came in with a CC50 at 24 h of over 50 µM. The compound `CCOC(=O)c1cccc(N)c1` [Ethyl 3-aminobenzoate methanesulfonic acid salt] had a CC50 at 24 h (AC50 (uM) modified / 1000) of over 50 µM. In turn, `COc1ccc(Br)c(C)c1` [1-Bromo-4-methoxy-2-methylbenzene] gave a CC50 at 24 h (AC50 (uM) modified / 1000) of over 90 µM. As to `C[C@]12CCC(=O)C=C1CC[C@@H]1[C@@H]2CC[C@@]2(C)[C@H]1CC[C@]2(C)O` [17-Methyltestosterone], the CC50 at 24 h by setting is: (AC50 (uM) modified / 1000, Tox21_110001=Tox21_113161, viability, 1 nM T3 present, 24 h) over 50 µM; (AC50 (uM) modified / 1000, Tox21_110001=Tox21_400058, viability, 1 nM T3 present, 24 h) over 90 µM. For the setting “AC50 (uM) modified / 1000”, `CC(C)CCC(=O)CCC(C)C` [2,8-Dimethylnonan-5-one] returned a CC50 at 24 h of over 90 µM. Same read-out and setting: with `c1ccc2scnc2c1` [Benzothiazole] the figure was over 90 µM; with `CCCCOC(=O)c1ccccc1C(=O)OCc1ccccc1` [Benzyl butyl phthalate], over 90 µM; with `CC(C)=CCC1C(=O)N(c2ccccc2)N(c2ccccc2)C1=O` [Feprazone], 48.7 µM.

As to `CC1(C)C(=O)C(C)(C)C1=O` [2,2,4,4-Tetramethylcyclobutane-1,3-dione], the CC50 at 24 h (AC50 (uM) modified / 1000) was over 90 µM. `CCNc1nc(Cl)nc(NC(C)(C)C)n1` [Terbutylazine] gave a CC50 at 24 h (AC50 (uM) modified / 1000) of over 90 µM. The same measure, in the same setting: with `Clc1ccc(C(OCCN2CCCCC2)c2ccccc2)cc1` (stereo not drawn) [Cloperastine hydrochloride] the figure was 9.53 µM. Same read-out and setting: next, `O=C1CCCCCCCCCCCC(=O)OCCO1` [1,4-Dioxacycloheptadecane-5,17-dione]: over 90 µM. `O=[N+]([O-])c1c(Cl)cc(Cl)cc1Cl` [2,4,6-Trichloronitrobenzene]: for the setting “AC50 (uM) modified / 1000”, the CC50 at 24 h is over 90 µM. As to `C[C@@H]1C[C@H]2[C@@H]3C[C@H](F)C4=CC(=O)C=C[C@]4(C)[C@@]3(F)[C@@H](O)C[C@]2(C)[C@@]1(O)C(=O)COC(=O)C(C)(C)C` [Flumethasone pivalate], the CC50 at 24 h (AC50 (uM) modified / 1000) was over 50 µM. The compound `NNS(=O)(=O)c1ccc(Oc2ccc(S(=O)(=O)NN)cc2)cc1` [4,4'-Oxybis(benzenesulfohydrazide)] had a 50% cytotoxic concentration (CC50) at 24 h (AC50 (uM) modified / 1000) of over 90 µM.

For the setting “AC50 (uM) modified / 1000”, `O=C(O)C1(c2ccc3c(c2)OC[C@H](Cc2ccc(-c4ccccc4)cc2)[C@H]3O)CCCC1` [CP-105696] yielded a CC50 at 24 h of 50.9 µM. This counts as double-digit micromolar. As for `CCCCCCC(=O)O[C@H]1CC[C@H]2[C@@H]3CC[C@H]4CC(=O)C=C(C)[C@]4(C)[C@H]3CC[C@]12C` [Methenolone enanthate], the CC50 at 24 h (AC50 (uM) modified / 1000, Tox21_110001=Tox21_112600, viability, 1 nM T3 present, 24 h) is over 50 µM.

The compound `CCCC(=O)OC(=O)CCC` [Butanoic anhydride] returned a CC50 at 24 h (AC50 (uM) modified / 1000) of over 90 µM. Compound `C[N+](C)(C)CCCl` [Chlormequat chloride] had a half-maximal cytotoxic concentration (CC50) at 24 h (AC50 (uM) modified / 1000, Tox21_110001=Tox21_200065, viability, 1 nM T3 present, 24 h) of over 90 µM. `O=C(NN1CCCC1)NS(=O)(=O)c1ccc(Cl)cc1` [Glyclopyramide] yielded a CC50 at 24 h (AC50 (uM) modified / 1000) of over 50 µM. Consider `CN1CCN=C(c2ccccc2)c2cc(Cl)ccc21` [Medazepam], for which the CC50 at 24 h (AC50 (uM) modified / 1000) was over 50 µM. Take `C[C]1([Mn](=[C]=O)(=[C]=O)=[C]=O)C=CC=C1` [(Methylcyclopentadienyl)tricarbonylmanganese]: the CC50 at 24 h (AC50 (uM) modified / 1000) was over 90 µM. Take `COS(C)(=O)=O` [Methyl methanesulfonate]: where the note is “AC50 (uM) modified / 1000”, the CC50 at 24 h was over 100 µM. `c1ccc2[nH]cnc2c1` [Benzimidazole]: for the setting “AC50 (uM) modified / 1000”, the CC50 at 24 h is over 90 µM.

In the case of `Cc1cccc(C)c1NC(=O)C1CCCCN1C` (stereo not drawn) [Mepivicaine hydrochloride], the CC50 at 24 h (AC50 (uM) modified / 1000) is over 50 µM. In the case of `O=C(O)c1ccccc1[N+](=O)[O-]` [2-Nitrobenzoic acid], the CC50 at 24 h (AC50 (uM) modified / 1000) was over 90 µM. As to `CCOP(=S)(NC(C)C)Oc1ccccc1C(=O)OC(C)C` (stereo not drawn) [Isofenphos], where the note is “AC50 (uM) modified / 1000, Tox21_110001=Tox21_302219, viability, 1 nM T3 present, 24 h”, the CC50 at 24 h amounted to 78.7 µM. As for `O=S(=O)(c1cccc2cnccc12)N1CCCNCC1` [Fasudil hydrochloride], the CC50 at 24 h (AC50 (uM) modified / 1000) was over 50 µM. On the same count and under the same terms, next, `COc1ccc(C(=CC(=O)N2CCOCC2)c2ccc(Cl)cc2)cc1OC` [Dimethomorph]: over 90 µM. In the case of `CN=C=S` [Methyl isothiocyanate], the CC50 at 24 h by setting is: (AC50 (uM) modified / 1000, Tox21_110001=Tox21_201548, viability, 1 nM T3 present, 24 h) over 90 µM; (AC50 (uM) modified / 1000, Tox21_110001=Tox21_300912, viability, 1 nM T3 present, 24 h) over 200 µM. In turn, `O=[N+]([O-])c1ccc(O)cc1C(F)(F)F` [3-Trifluoromethyl-4-nitrophenol] displayed a CC50 at 24 h (AC50 (uM) modified / 1000) of 41.4 µM. Under “AC50 (uM) modified / 1000”, `CCCN1CCCC[C@H]1C(=O)Nc1c(C)cccc1C` [Ropivacaine hydrochloride] registered a CC50 at 24 h of over 50 µM.

The compound `O=C(O)[C@H](O)[C@@H](O)C(=O)O` [L-Tartaric acid] gave a CC50 at 24 h (AC50 (uM) modified / 1000) of over 90 µM.

For `O=C(OCCO)c1ccccc1O` [2-Hydroxyethyl salicylate], where the note is “AC50 (uM) modified / 1000”, the CC50 at 24 h was over 50 µM. In the case of `CNCc1ccc(NC(=O)c2c[nH]c3c2C(=O)CCC3)cc1` [CP-409092], the CC50 at 24 h (AC50 (uM) modified / 1000) was over 90 µM. Same read-out and setting: with `CC(=O)SCc1ccco1` [S-Furfuryl thioacetate] the figure was over 90 µM; with `O=C(O)/C=C\C(=O)O` [Maleic acid], over 90 µM; with `Nc1ccc(N)c2c1C(=O)c1ccccc1C2=O` [1,4-Diaminoanthraquinone], 55.3 µM.

Where the note is “AC50 (uM) modified / 1000”, `CCCCCCc1ccc(N)cc1` [4-Hexylaniline] displayed a CC50 at 24 h of 81.3 µM. In the case of `CC(C)CCO` [Isopentyl alcohol], the CC50 at 24 h (AC50 (uM) modified / 1000) is over 90 µM.

Turning to `CCCCC(CC)CCC(CC(C)C)OS(=O)(=O)O` (stereo not drawn) [7-Ethyl-2-methyl-4-undecanolsulfate, sodium salt], the CC50 at 24 h (AC50 (uM) modified / 1000) was over 90 µM.

For the setting “AC50 (uM) modified / 1000”, `CC(=O)CCCCn1c(=O)c2c(ncn2C)n(C)c1=O` [Pentoxifylline] registered a CC50 at 24 h of over 20 µM. With `O=C1C(c2[nH]c3ccc(S(=O)(=O)O)cc3c2O)=Nc2ccc(S(=O)(=O)O)cc21` [C.I. Acid Blue 74], for the setting “AC50 (uM) modified / 1000”, the CC50 at 24 h was over 90 µM. Turning to `Clc1ccc(Nc2nnc(Cc3ccncc3)c3ccccc23)cc1` [Vatalanib], the CC50 at 24 h (AC50 (uM) modified / 1000) is over 50 µM.

Compound `Cc1ccc(C)c([N+](=O)[O-])c1` [1,4-Dimethyl-2-nitrobenzene] yielded a CC50 at 24 h (AC50 (uM) modified / 1000) of over 90 µM. Under “AC50 (uM) modified / 1000”, `CC(=O)Oc1ccc2c(c1)CC[C@@H]1[C@@H]2CC[C@]2(C)[C@@H](O)CC[C@@H]12` [Estradiol acetate] returned a CC50 at 24 h of 22.3 µM. On the same count and under the same terms, with `O=C1c2c(O)cccc2[C@H]([C@@H]2O[C@H](CO)[C@@H](O)[C@H](O)[C@H]2O)c2cc(CO)cc(O)c21` [Aloin A] the figure was over 50 µM. Take `C#CCO` [Propargyl alcohol]: the CC50 at 24 h (AC50 (uM) modified / 1000, Tox21_110001=Tox21_200976, viability, 1 nM T3 present, 24 h) is over 90 µM. With `O=C1CCCO1` [4-Butyrolactone], the CC50 at 24 h (AC50 (uM) modified / 1000, Tox21_110001=Tox21_200490, viability, 1 nM T3 present, 24 h) is over 90 µM.

Turning to `CCN(CCC#N)c1ccc(N=Nc2c(Cl)cc([N+](=O)[O-])cc2Cl)cc1` [C.I. Disperse Orange 37], the CC50 at 24 h (AC50 (uM) modified / 1000) stood at 33.4 µM. The compound `Cc1ccc(C)c(O)c1` [2,5-Dimethylphenol] had a CC50 at 24 h (AC50 (uM) modified / 1000) of over 90 µM. For the setting “AC50 (uM) modified / 1000”, `O=C(O)CCCCCCCCCC(=O)O` [Undecanedioic acid] registered a CC50 at 24 h of over 90 µM.

`CC(=O)N[C@@H](Cc1ccc(O)cc1)C(=O)O` [N-Acetyl-L-tyrosine] yielded a CC50 at 24 h (AC50 (uM) modified / 1000) of over 50 µM. `FC(Cl)(Cl)C(F)(Cl)Cl` [1,2-Difluoro-1,1,2,2-tetrachloroethane] had a CC50 at 24 h (AC50 (uM) modified / 1000, Tox21_110001=Tox21_200566, viability, 1 nM T3 present, 24 h) of over 100 µM. Under “AC50 (uM) modified / 1000”, `Cc1ccccc1C` [o-Xylene] gave a cytotoxic concentration (CC50) at 24 h of over 90 µM.

For `N[C@@H](CS)C(=O)O` [l-Cysteine hydrochloride], the CC50 at 24 h (AC50 (uM) modified / 1000) was over 90 µM. The same measure, in the same setting: next, `C=C1/C(=C\C=C2/CCC[C@]3(C)[C@@H]([C@H](C)/C=C/[C@H](C)C(C)C)CC[C@@H]23)C[C@@H](O)C[C@@H]1O` [1-alpha-Hydroxyergocalciferol]: 37.5 µM; `C=C(C)C(=O)OCCC[Si](OC)(OC)OC` [3-(Trimethoxysilyl)propyl methacrylate]: over 90 µM.

The compound `CN1CC[C@H](c2c(O)cc(O)c3c(=O)cc(-c4ccccc4Cl)oc23)[C@H](O)C1` [Flavopiridol hydrochloride] registered a CC50 at 24 h (AC50 (uM) modified / 1000) of 0.302 µM. `N#Cc1ccc(C2CCCc3cncn32)cc1` (stereo not drawn) [Fadrozole hydrochloride]: the CC50 at 24 h (AC50 (uM) modified / 1000) is over 40 µM. Turning to `Nc1nc(N)c2nc(CNc3ccc(C(=O)N[C@@H](CCC(=O)O)C(=O)O)cc3)cnc2n1` [4-Aminofolic acid], the CC50 at 24 h (AC50 (uM) modified / 1000) was over 50 µM. In turn, `BrCCCCCCBr` [1,6-Dibromohexane] displayed a CC50 at 24 h (AC50 (uM) modified / 1000, Tox21_110001=Tox21_302059, viability, 1 nM T3 present, 24 h) of over 90 µM. Take `ClC(Cl)(Cl)c1ccc(C(Cl)(Cl)Cl)cc1` [1,4-Bis(trichloromethyl)benzene]: the CC50 at 24 h (AC50 (uM) modified / 1000) was over 90 µM.

On to `CCC(C)(C)c1cc(-n2nc3ccccc3n2)c(O)c(C(C)(C)CC)c1` [2-(2H-Benzotriazol-2-yl)-4,6-bis(1,1-dimethylpropyl)phenol], for which, for the setting “AC50 (uM) modified / 1000”, the CC50 at 24 h was over 90 µM. Same read-out and setting: with `CC1=C(C(=O)O)N2C(=O)[C@@H](NC(=O)[C@H](N)C3=CCC=CC3)[C@H]2SC1` [Cephradine] the figure was over 50 µM. Where the note is “AC50 (uM) modified / 1000”, `Cc1cc(Nc2ccccc2C(=O)O)ccc1Cl` [2-[(4-Chloro-3-methylphenyl)amino]benzoic acid] came in with a CC50 at 24 h of over 50 µM.
